Patent US10294202B2, “Pyrrolidinones as herbicides” (FMC Corporation, priority 2013, dated 2019)

Experiments:
canarygrass = test: Test D pre-/postemergence herbicide test; format: in vivo, Phalaris minor; conditions: Preemergence; for Plant response rating, Canarygrass: scale 0 to 100 (0 no effect, 100 complete control); for Plant response rating: 250 g ai/ha, Canarygrass, scale 0 to 100
In short: (§1)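 Seeds sown in silt loam were sprayed preemergence with test chemicals in a non-phytotoxic solvent mixture with surfactant. Postemergence plants grown in peat/vermiculite medium were treated at 2–18 cm (1- to 4-leaf stage). After 7 to 21 days in a controlled environment, injury was rated visually versus controls, 0 (no effect) to 100 (complete control).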

soybean = test: Test E preemergence herbicide test; format: in vivo, Glycine max; parameters: key: 0 = no effect, 100 = complete control
Description: Seeds of plant species selected from corn (Zea mays), soybean (Glycine max), velvetleaf (Abutilon theophrasti), lambsquarters (Chenopodium album), wild poinsettia (Euphorbia heterophylla), pigweed, palmer (palmer pigweed, Amaranthus palmeri), waterhemp (common waterhemp, Amaranthus rudis), surinam grass (Brachiaria decumbens), crabgrass, large (large crabgrass, Digitaria sanguinalis), crabgrass, Brazil (Brazilian crabgrass, Digitaria horizontalis), panicum, fall (fall panicum, Panicum dichotomiflorum), foxtail, giant (giant foxtail, Setaria faberii), foxtail, green (green foxtail, Setaria viridis), goosegrass (Eleusine indica), johnsongrass (Sorghum halepense), ragweed (common ragweed, Ambrosia elatior), barnyardgrass (Echinochloa crus-galli), sandbur (southern sandbur, Cenchrus echinatus), arrowleaf […] rhombifolia), ryegrass, Italian (Italian ryegrass, Lolium multiflorum), dayflower, VA (Virginia dayflower, Commelina virginica), field bindweed (Convolvulus arvensis), morningglory (Ipomoea coccinea), nightshade (eastern black nightshade, Solanum ptycanthum), kochia (Kochia scoparia), nutsedge, yellow (yellow nutsedge, Cyperus esculentus), cocklebur (common cocklebur, Xanthium strumarium), smartweed (ladysthumb smartweed, Polygonum Persicaria) and beggarticks (hairy beggarticks, Bidens pilosa), were planted into a silt loam soil and treated preemergence with test chemicals formulated in a non-phytotoxic solvent mixture which included a surfactant. Treated plants and controls were maintained in a greenhouse for 21 days, after which time all species were compared to controls and visually evaluated. Plant response ratings, summarized in Table E, are based on a scale of 0 to 100 where 0 is no effect and 100 is complete control. A dash (-) response means no test result.

arrowleaf sida = test: Test E preemergence herbicide test; format: in vivo, Sida rhombifolia; parameters: key: 0 = no effect, 100 = complete control
In short: (§2)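 Response is a 0–100 visual rating against controls (100 = complete control), taken 21 days after preemergence treatment of seeded silt loam soil held in a greenhouse.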

ragweed = test: Test E preemergence herbicide test; format: in vivo, Ambrosia elatior; parameters: key: 0 = no effect, 100 = complete control
In short: as §2

barnyardgrass = test: Test F flood (paddy) test; format: in vivo, Echinochloa crus-galli; conditions: 21 d, scale 0-100
In short: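 Visual injury ratings (0 no effect to 100 complete control) were taken 21 d after treatment against untreated controls. Compounds went directly into paddy water held 3 cm above soil, applied at the 2.0–2.5-leaf stage in sterilized Tama silt loam under a 30/27 °C, 16-h greenhouse regime.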

lambsquarters = test: Test D pre-/postemergence herbicide test; format: in vivo, Chenopodium album; conditions: Preemergence; for Plant response rating, Lambsquarters: scale 0 to 100 (0 no effect, 100 complete control); for Plant response rating: 250 g ai/ha, Lambsquarters, scale 0 to 100
In short: as §1

Row | SMILES | Plant response rating, Canarygrass (canarygrass; 62 g ai/ha) | Plant response rating, Canarygrass (canarygrass; 125 g ai/ha) | Plant response rating, Canarygrass (canarygrass; 31 g ai/ha) | Plant response rating (canarygrass) | Plant response rating, Soybean (soybean; 31 g ai/ha) | Plant response rating, Soybean (soybean; 62 g ai/ha) | Plant response rating, Soybean (soybean; 125 g ai/ha) | Plant response rating, Arrowleaf Sida (arrowleaf sida; 31 g ai/ha) | Plant response rating, Arrowleaf Sida (arrowleaf sida; 62 g ai/ha) | Plant response rating, Arrowleaf Sida (arrowleaf sida; 125 g ai/ha) | Plant response rating, Arrowleaf Sida (arrowleaf sida; 250 g ai/ha) | Plant response rating, Ragweed (ragweed; 31 g ai/ha) | Plant response rating, Ragweed (ragweed; 62 g ai/ha) | Plant response rating, Ragweed (ragweed; 125 g ai/ha) | Plant response rating, Ragweed (ragweed; 250 g ai/ha) | Plant response rating, Barnyardgrass (barnyardgrass; 125 g ai/ha) | Plant response rating, Barnyardgrass (barnyardgrass; 250 g ai/ha) | Plant response rating, Barnyardgrass (barnyardgrass; 500 g ai/ha) | Plant response rating, Lambsquarters (lambsquarters; 62 g ai/ha) | Plant response rating, Lambsquarters (lambsquarters; 125 g ai/ha) | also measured
1 | O=C1NC[C@H](c2cccc(C(F)(F)F)c2)[C@H]1C(=O)Nc1ccccc1F [Compound 204, (3R,4S)—N-(2-fluorophenyl)-2-oxo-4-[3-(trifluoromethyl)phenyl]-3-pyrrolidinecarboxamide] | 10 | 10 | 0 | 75 | 0 | 0 | 0 | 0 | 0 | 0 | 0 | 0 | 0 | 0 | 0 | 100 | 100 | 100 | 30 | 65 | Plant response rating, Lambsquarters (lambsquarters; 31 g ai/ha): 35; Plant response rating (lambsquarters): 90
2 | O=C1NC[C@H](c2cccc(C(F)(F)F)c2)[C@H]1C(=O)Nc1cccc(F)c1F [Compound 206] | 75 | 85 | 55 | 85 | 0 | 0 | 0 | 0 | 0 | 10 | 50 | 0 | 0 | 0 | 75 | 100 | 100 | 100 | 80 | 85 | Plant response rating, Soybean (soybean; 250 g ai/ha): 0; Plant response rating, Barnyardgrass (barnyardgrass; 64 g ai/ha): 90; Plant response rating, Lambsquarters (lambsquarters; 31 g ai/ha): 50; Plant response rating (lambsquarters): 90
